Results on one compound are retold here after ChEMBL document CHEMBL1131881 (Bioorg Med Chem Lett, 1999).

In this test the target is Sodium-dependent dopamine transporter (Homo sapiens, UniProt Q01959). Kind of test: Binding affinity towards dopamine transporter (DAT).

A word on the IC50: it is the concentration at which inhibition is half-maximal. A high value points to a need for much substance.

Sequence of Sodium-dependent dopamine transporter (Q01959 whole entry): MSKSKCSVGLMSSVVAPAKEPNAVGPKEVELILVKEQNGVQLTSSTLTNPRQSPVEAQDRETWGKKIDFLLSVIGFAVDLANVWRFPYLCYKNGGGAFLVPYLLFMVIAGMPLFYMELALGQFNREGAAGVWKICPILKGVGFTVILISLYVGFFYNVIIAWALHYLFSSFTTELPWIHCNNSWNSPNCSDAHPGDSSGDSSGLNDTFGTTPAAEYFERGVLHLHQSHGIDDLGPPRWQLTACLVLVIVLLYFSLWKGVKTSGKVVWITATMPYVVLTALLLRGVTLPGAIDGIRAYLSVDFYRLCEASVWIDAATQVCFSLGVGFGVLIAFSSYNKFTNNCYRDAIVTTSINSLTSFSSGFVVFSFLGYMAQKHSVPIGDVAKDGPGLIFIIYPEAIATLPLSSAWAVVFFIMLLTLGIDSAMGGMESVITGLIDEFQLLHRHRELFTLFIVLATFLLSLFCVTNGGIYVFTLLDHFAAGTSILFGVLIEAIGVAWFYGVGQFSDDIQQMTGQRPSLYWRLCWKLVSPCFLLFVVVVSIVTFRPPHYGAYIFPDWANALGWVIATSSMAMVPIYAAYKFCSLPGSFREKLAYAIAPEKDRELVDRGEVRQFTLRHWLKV

The compound `CCC[C@@H]1CN(C)CC[C@@H]1c1ccc(Cl)cc1` registered a half-inhibitory concentration (IC50) of 3 nM.
